How the values were obtained:
H9 hESCs = assay: Expansion of hESCs in stirred suspension bioreactors; assay type: cell-based, human
Procedure: Bioreactor Maintenance of hESCs. H9 cells passaged in static on Matrigel™ or using feeder layers were pre-treated for 1 hr with 10 μM Y-27632 (Sigma), then dissociated as described earlier. The hESCs were then inoculated into 125 ml bioreactors (NDS Technologies) at 1.8×10^4 cells/ml. The bioreactors contained 100 ml of mTeSR medium supplemented with 10 μM Y-27632 and 0.1 nM Rapamycin (Sigma), were agitated at 100 rpm and were incubated under standard conditions (37° C., 5% CO2, saturated humidity). After 24 hrs in suspension culture, the Y-27632 was removed and replaced with mTeSR medium containing 0.1 nM Rapamycin. […] The single cell suspension of hESCs was split 1:5 and inoculated into a new bioreactor containing 100 ml of mTeSR medium supplemented with 10 μM Y-27632 and 0.1 nM Rapamycin for 24 hrs.
In the bioreactor systems, hESCs (collected from static cultures containing Matrigel™ or human foreskin fibroblast feeder (HFF) cells) were inoculated at 1.8×10^4 cells/ml into 100 ml of mTeSR medium (Stemcell Technologies Inc.) and agitated at 100 rpm.

hESCs = details: cited from earlier work

C[C@@H](N)[C@H]1CC[C@H](C(=O)Nc2ccncc2)CC1 [Y-27632]
hESC aggregate formation (H9 hESCs; 10 μM ROCK inhibitor and 0.1 nM Rapamycin together, 1.8×10^4 cells/ml, mTeSR, 100 rpm): form tight aggregates
hESC aggregate formation when the inhibitor is left out (H9 hESCs; ROCK inhibitor excluded from bioreactor cultures, by day 5, data not shown): noticeably fewer aggregates were observed and mainly single cells were observed by day 5
lag phase of the cultures (H9 hESCs; exposure to ROCK inhibitor decreased from 4 days to 24 hrs): substantial decrease in the lag phase
overall expansion (H9 hESCs; non-passaged cultures, ROCK inhibitor day 0 to day 4, collagenase every 5 days, over 20 days): 67 fold
survival rate of dissociated, single hESCs (hESCs): increases the survival rate

From US20110263016A1, “Expansion of Embryonic Stem Cells” (priority 2008, published 2011)
